Read-outs that look alike come from different tables or passages of the source.
Tests used:
Experiment in all cases: biochemical
Set-up in all cases: KINOMEscan scanMAX competition binding, DNA-tagged kinases, qPCR read-out, percent control at 300 nM
AURKC = target: T1, AURKC (Homo sapiens, UniProt Q9UQB9)
T1 sequence (Q9UQB9 1-309): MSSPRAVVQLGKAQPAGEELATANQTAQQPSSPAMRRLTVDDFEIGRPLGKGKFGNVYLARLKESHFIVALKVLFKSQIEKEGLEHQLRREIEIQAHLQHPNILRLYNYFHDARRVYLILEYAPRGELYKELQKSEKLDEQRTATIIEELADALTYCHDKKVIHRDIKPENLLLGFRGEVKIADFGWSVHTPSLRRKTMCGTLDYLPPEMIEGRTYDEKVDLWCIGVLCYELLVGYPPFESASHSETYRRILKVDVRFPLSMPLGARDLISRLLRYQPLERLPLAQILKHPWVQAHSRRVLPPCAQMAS

BIKE = target: T2, BIKE (Homo sapiens, UniProt Q9NSY1)
T2 construct: gene BMP2K

CLK2 = CLK2 (Homo sapiens, UniProt P49760)
MST1R = MST1R (Homo sapiens, UniProt Q04912)
PDGFRB = PDGFRB (Homo sapiens, UniProt P09619)
PRKCH = PRKCH (Homo sapiens, UniProt P24723)
SLK = SLK (Homo sapiens, UniProt Q9H2G2)
ACVR2A = ACVR2A (Homo sapiens, UniProt P27037)
BRAF = BRAF (Homo sapiens, UniProt P15056)
BRSK2 = target: T3, BRSK2 (Homo sapiens, UniProt Q8IWQ3)
T3 sequence (Q8IWQ3 1-736): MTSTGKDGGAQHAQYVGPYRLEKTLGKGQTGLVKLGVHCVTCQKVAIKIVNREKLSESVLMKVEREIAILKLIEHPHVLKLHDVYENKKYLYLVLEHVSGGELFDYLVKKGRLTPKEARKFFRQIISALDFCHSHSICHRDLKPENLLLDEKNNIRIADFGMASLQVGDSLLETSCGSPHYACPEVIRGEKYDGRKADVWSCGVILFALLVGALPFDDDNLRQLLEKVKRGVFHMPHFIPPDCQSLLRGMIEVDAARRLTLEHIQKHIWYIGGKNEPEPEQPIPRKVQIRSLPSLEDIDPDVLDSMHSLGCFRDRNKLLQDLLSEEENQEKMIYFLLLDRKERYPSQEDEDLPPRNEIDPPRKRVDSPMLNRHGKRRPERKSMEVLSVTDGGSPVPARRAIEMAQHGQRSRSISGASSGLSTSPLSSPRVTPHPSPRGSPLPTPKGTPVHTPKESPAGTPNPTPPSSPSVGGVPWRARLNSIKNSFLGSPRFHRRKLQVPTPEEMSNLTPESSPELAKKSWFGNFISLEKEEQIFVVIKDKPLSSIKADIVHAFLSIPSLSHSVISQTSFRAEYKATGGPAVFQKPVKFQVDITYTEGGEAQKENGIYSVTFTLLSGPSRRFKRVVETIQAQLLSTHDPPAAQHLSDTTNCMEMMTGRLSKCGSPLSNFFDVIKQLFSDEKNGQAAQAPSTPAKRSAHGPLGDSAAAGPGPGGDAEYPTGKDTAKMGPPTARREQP

FGFR2 = FGFR2 (Homo sapiens, UniProt P21802)
RIOK3 = target: T4, RIOK3 (Homo sapiens, UniProt O14730)
T4 sequence (O14730 1-519): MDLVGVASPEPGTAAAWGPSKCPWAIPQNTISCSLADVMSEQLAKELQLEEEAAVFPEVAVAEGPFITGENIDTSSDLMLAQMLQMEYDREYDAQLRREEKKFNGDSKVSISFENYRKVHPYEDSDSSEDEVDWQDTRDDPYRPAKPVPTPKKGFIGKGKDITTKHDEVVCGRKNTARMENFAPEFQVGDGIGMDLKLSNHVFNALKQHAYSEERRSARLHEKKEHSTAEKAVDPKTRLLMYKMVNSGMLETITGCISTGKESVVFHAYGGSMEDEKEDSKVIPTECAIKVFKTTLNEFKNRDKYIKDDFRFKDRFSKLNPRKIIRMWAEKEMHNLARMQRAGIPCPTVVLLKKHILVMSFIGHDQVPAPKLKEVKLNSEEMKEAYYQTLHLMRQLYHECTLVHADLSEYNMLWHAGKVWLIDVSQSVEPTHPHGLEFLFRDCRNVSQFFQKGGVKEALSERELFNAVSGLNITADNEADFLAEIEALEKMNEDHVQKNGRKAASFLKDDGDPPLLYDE

[1] = read-out: Percent control / Tirabrutinib
[2] = read-out: Percent control / Zanubrutinib
[3] = read-out: Percent control / Acalabrutinib
[4] = read-out: Percent control / Ibrutinib

Sequence of SLK (Q9H2G2 whole entry): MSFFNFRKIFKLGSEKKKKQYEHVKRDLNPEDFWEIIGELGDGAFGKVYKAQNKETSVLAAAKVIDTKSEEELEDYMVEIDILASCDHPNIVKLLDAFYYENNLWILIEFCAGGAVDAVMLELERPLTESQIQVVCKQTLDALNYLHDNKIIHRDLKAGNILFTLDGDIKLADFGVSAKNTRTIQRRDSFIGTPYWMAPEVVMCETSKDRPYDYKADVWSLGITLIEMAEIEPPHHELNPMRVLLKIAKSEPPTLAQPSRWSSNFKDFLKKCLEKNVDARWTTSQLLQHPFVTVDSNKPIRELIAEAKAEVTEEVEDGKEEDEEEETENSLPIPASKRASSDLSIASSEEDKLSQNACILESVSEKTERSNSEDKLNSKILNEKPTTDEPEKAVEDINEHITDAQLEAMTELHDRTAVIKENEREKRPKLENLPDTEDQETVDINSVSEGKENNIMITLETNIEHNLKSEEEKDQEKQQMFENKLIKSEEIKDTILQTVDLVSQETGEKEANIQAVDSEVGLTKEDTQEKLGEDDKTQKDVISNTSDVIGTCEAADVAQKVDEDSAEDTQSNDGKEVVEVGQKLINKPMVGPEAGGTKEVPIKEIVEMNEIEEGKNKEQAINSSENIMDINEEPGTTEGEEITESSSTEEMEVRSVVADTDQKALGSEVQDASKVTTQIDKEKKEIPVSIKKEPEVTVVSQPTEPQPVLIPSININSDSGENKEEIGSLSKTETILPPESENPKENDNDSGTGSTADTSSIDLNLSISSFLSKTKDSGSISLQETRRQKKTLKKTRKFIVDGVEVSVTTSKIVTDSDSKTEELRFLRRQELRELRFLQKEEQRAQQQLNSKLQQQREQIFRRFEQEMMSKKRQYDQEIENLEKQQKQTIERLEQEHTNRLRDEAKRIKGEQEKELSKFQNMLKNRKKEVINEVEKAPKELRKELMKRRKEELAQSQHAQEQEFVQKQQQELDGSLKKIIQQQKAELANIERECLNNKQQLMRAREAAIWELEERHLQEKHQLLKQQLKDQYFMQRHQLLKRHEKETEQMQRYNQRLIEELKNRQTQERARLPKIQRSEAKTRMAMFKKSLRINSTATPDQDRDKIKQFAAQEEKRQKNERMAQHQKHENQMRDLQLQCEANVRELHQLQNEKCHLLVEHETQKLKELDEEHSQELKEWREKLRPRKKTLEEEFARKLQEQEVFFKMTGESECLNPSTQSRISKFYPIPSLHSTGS
Sequence of BRAF (P15056 whole entry): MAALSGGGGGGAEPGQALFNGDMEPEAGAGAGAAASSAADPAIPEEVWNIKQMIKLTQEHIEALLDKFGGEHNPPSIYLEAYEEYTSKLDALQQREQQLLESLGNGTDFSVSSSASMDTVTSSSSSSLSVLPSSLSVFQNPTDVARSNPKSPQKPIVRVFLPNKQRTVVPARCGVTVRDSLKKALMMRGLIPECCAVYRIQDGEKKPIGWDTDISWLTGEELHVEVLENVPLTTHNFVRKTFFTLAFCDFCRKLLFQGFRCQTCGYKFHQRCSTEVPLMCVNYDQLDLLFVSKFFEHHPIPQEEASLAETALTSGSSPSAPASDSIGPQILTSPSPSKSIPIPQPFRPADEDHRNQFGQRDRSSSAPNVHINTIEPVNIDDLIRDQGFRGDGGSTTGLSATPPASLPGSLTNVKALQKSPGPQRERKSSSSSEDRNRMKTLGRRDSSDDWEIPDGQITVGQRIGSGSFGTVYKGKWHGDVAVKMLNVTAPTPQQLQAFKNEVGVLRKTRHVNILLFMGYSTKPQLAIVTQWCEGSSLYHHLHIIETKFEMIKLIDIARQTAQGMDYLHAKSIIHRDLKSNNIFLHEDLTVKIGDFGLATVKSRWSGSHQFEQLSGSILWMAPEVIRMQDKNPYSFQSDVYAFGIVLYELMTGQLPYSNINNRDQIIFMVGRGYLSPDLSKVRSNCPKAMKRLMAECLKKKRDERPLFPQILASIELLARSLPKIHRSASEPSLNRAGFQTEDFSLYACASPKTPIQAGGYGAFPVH
Sequence of MST1R (Q04912 whole entry): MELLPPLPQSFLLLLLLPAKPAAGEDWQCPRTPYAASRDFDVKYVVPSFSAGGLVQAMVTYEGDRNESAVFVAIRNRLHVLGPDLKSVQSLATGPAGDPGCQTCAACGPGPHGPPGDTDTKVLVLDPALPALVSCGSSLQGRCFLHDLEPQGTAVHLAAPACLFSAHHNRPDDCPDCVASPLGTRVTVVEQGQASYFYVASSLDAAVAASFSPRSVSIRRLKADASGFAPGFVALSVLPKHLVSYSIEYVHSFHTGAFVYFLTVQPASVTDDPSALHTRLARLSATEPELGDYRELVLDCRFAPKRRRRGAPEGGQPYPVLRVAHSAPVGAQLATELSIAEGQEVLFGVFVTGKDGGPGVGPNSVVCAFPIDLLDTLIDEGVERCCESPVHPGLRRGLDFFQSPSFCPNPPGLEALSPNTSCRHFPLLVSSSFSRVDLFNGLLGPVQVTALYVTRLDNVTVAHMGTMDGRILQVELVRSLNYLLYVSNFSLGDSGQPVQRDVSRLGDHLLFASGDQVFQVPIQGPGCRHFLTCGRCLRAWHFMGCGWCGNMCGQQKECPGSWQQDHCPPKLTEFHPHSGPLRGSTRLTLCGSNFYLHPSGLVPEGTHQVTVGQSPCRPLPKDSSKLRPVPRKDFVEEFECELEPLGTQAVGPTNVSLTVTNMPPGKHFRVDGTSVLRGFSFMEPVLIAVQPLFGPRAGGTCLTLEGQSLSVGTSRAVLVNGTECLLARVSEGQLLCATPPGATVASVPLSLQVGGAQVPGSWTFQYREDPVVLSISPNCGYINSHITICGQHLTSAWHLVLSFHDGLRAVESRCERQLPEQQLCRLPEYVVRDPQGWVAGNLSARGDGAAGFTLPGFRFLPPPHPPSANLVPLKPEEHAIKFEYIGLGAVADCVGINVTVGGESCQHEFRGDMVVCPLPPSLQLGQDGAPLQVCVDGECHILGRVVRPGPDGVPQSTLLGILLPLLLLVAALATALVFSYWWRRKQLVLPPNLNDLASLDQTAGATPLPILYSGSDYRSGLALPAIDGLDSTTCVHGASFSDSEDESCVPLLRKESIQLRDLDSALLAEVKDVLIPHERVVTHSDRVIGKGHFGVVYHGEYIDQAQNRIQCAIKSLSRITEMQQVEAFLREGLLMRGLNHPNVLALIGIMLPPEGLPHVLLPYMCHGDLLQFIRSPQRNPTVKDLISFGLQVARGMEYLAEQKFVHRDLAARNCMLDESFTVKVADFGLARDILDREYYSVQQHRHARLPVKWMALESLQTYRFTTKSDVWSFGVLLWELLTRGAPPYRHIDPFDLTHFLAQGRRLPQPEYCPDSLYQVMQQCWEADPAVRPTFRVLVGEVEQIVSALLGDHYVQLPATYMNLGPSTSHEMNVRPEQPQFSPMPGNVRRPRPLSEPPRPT
Sequence of FGFR2 (P21802 whole entry): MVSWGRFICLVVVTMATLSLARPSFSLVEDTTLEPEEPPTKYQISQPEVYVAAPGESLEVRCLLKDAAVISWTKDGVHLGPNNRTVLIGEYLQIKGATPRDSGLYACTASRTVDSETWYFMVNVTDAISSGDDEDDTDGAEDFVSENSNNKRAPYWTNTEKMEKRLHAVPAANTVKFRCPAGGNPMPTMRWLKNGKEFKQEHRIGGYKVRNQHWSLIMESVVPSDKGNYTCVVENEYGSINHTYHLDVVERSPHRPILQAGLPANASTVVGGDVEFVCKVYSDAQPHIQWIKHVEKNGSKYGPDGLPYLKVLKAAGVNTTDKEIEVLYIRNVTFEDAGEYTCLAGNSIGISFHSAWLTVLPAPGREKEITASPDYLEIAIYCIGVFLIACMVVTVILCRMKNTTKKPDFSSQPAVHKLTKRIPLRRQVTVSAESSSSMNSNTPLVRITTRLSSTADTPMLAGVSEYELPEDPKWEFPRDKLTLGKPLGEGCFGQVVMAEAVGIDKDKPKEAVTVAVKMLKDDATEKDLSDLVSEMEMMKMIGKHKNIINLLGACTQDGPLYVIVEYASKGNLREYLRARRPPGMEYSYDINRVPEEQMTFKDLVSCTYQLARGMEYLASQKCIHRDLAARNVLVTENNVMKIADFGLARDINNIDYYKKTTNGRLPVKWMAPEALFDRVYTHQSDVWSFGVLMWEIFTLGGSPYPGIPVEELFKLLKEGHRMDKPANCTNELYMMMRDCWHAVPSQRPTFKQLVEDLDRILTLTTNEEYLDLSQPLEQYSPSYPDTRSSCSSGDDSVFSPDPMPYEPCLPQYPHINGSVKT
Sequence of CLK2 (P49760 whole entry): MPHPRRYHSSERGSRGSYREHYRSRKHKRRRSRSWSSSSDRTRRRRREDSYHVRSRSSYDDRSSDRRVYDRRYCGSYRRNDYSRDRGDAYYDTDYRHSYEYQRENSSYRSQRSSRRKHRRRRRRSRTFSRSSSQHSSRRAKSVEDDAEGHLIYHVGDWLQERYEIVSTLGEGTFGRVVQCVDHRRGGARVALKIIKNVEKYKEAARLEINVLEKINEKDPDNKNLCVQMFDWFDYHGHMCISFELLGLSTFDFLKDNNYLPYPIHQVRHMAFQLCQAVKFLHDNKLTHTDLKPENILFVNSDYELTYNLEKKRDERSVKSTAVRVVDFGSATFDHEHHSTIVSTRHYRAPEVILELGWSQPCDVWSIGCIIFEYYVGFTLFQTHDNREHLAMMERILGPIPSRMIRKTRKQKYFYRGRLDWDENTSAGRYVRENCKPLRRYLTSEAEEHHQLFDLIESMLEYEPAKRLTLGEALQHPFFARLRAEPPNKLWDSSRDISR

CC#CC(=O)N1CC[C@@H](n2c(=O)n(-c3ccc(Oc4ccccc4)cc3)c3c(N)ncnc32)C1 [Tirabrutinib]
remaining binding at 0.3 µM (AURKC; [1]): 65%
remaining binding at 0.3 µM (BIKE; [1]): 88%
remaining binding at 0.3 µM (CLK2; [1]): 94%
remaining binding at 0.3 µM (MST1R; [1]): 98%
remaining binding at 0.3 µM (PDGFRB; [1]): 79%
remaining binding at 0.3 µM (PRKCH; [1]): 91%
remaining binding at 0.3 µM (SLK; [1]): 93%

C=CC(=O)N1CCC([C@@H]2CCNc3c(C(N)=O)c(-c4ccc(Oc5ccccc5)cc4)nn32)CC1 [Zanubrutinib]
remaining binding at 0.3 µM (ACVR2A; [2]): 100%
remaining binding at 0.3 µM (AURKC; [2]): 97%
remaining binding at 0.3 µM (BRAF; [2]): 97%
remaining binding at 0.3 µM (BRSK2; [2]): 81%
remaining binding at 0.3 µM (CLK2; [2]): 87%
remaining binding at 0.3 µM (FGFR2; [2]): 93%
remaining binding at 0.3 µM (MST1R; [2]): 98%
remaining binding at 0.3 µM (PDGFRB; [2]): 100%
remaining binding at 0.3 µM (PRKCH; [2]): 97%
remaining binding at 0.3 µM (RIOK3; [2]): 100%
remaining binding at 0.3 µM (SLK; [2]): 99%

CC#CC(=O)N1CCC[C@H]1c1nc(-c2ccc(C(=O)Nc3ccccn3)cc2)c2c(N)nccn12 [Acalabrutinib]
remaining binding at 0.3 µM (ACVR2A; [3]): 80%
remaining binding at 0.3 µM (AURKC; [3]): 64%
remaining binding at 0.3 µM (BIKE; [3]): 94%
remaining binding at 0.3 µM (BRAF; [3]): 85%
remaining binding at 0.3 µM (BRSK2; [3]): 94%
remaining binding at 0.3 µM (CLK2; [3]): 99%
remaining binding at 0.3 µM (FGFR2; [3]): 88%
remaining binding at 0.3 µM (MST1R; [3]): 91%
remaining binding at 0.3 µM (PDGFRB; [3]): 93%
remaining binding at 0.3 µM (PRKCH; [3]): 94%
remaining binding at 0.3 µM (RIOK3; [3]): 90%
remaining binding at 0.3 µM (SLK; [3]): 88%

C=CC(=O)N1CCC[C@@H](n2nc(-c3ccc(Oc4ccccc4)cc3)c3c(N)ncnc32)C1 [Ibrutinib]
remaining binding at 0.3 µM (ACVR2A; [4]): 86%
remaining binding at 0.3 µM (AURKC; [4]): 54%
remaining binding at 0.3 µM (BIKE; [4]): 66%
remaining binding at 0.3 µM (BRAF; [4]): 97%
remaining binding at 0.3 µM (BRSK2; [4]): 82%
remaining binding at 0.3 µM (FGFR2; [4]): 65%
remaining binding at 0.3 µM (MST1R; [4]): 90%
remaining binding at 0.3 µM (PDGFRB; [4]): 38%
remaining binding at 0.3 µM (PRKCH; [4]): 90%
remaining binding at 0.3 µM (RIOK3; [4]): 89%
remaining binding at 0.3 µM (SLK; [4]): 92%
